Reference: patent US10981926B2 (Janssen Pharmaceutica NV, priority 2016, dated 2021)

Tests used:
[1] = target: T1, wild-type Androgen Receptor (AR-wt) (Homo sapiens (Human), UniProt P10275); test: LNCaP-AR-wt ANT reporter assay (antagonist mode); type: cell-based; conditions: for LNCaP-AR-wt ANT pIC50 / IC50: pIC50 = −Log10(IC50 in Molar); for IC50: read-out: LNCaP-AR-wt ANT pIC50 (converted); for Emax: read-out: LNCaP-AR-wt ANT MAX % Inh
[2] = target: T1, wild-type Androgen Receptor (AR-wt); test: LNCaP-AR-wt AG reporter assay (agonist mode); type: cell-based; conditions: for EC50: read-out: LNCaP-AR-wt AG pEC50 (converted); for Emax: read-out: LNCaP-AR-wt AG MAX % Stim
rGABA-gated Cl− channel = test: GABA-Gated Cl Channel Antagonist Radioligand Binding Assay; parameters: species or system rat; conditions: 10 μM single point, [35S]-TBPS, cerebral cortex membrane homogenates
Method: GABA-gated C1 Chanel assays were performed at CEREP according to the following method. Membrane homogenates of cerebral cortex (120 μg protein) were incubated for 120 min at 22° C. with 3 nM […] in the absence or presence of the test compound in a buffer containing 50 mM Na2HPO4/KH2PO4 (pH 7.4) and 500 mM NaCl. Nonspecific binding was determined in the presence of 20 μM picrotoxinin. Following incubation, the samples were filtered rapidly under vacuum through glass fiber filters (GF/B, Packard) presoaked with 0.3% PEI and rinsed several times with ice-cold 50 mM Tris-HCl using a 96-sample cell harvester (Unifilter, Packard). The filters were dried then counted for radioactivity in a scintillation counter (Topcount, Packard) using a scintillation cocktail (Microscint 0, Packard). The results are expressed as a percent inhibition of the control radio ligand specific binding. The standard reference compound is picrotoxinin, which was tested in each experiment at several concentrations to obtain a competition curve from which its IC50 was calculated. In this assay, the following representative compounds disclosed herein had recorded activities at a 10 μM single point concentration in the GABA-gated Cl— Channel Binding Assay.

[3] = target: T2, F876L mutant Androgen Receptor (AR-F876L) (Homo sapiens (Human), UniProt P10275, F877L); test: LNCaP-AR-F876L ANT reporter assay (antagonist mode); type: cell-based; conditions: for LNCaP-AR-F876L ANT pIC50 / IC50: pIC50 = −Log10(IC50 in Molar); for IC50: read-out: LNCaP-AR-F876L ANT pIC50 (converted); for Emax: read-out: LNCaP-AR-F876L ANT MAX % Inh
[4] = target: T2, F876L mutant Androgen Receptor (AR-F876L); test: LNCaP-AR-F876L AG reporter assay (agonist mode); type: cell-based; conditions: for EC50: read-out: LNCaP-AR-F876L AG pEC50 (converted); for Emax: read-out: LNCaP-AR-F876L AG MAX % Stim
[5] = maximum % inhibition of R1881 control response over the tested concentration range
[6] = agonist mode, pEC50 = −Log10(EC50 in Molar)
[7] = maximum % stimulation (agonist response) over the tested concentration range
[8] = antagonist mode, maximum % inhibition of R1881 control response over tested concentration range
[9] = agonist mode, maximum % stimulation over tested concentration range

T1 sequence (P10275 whole entry): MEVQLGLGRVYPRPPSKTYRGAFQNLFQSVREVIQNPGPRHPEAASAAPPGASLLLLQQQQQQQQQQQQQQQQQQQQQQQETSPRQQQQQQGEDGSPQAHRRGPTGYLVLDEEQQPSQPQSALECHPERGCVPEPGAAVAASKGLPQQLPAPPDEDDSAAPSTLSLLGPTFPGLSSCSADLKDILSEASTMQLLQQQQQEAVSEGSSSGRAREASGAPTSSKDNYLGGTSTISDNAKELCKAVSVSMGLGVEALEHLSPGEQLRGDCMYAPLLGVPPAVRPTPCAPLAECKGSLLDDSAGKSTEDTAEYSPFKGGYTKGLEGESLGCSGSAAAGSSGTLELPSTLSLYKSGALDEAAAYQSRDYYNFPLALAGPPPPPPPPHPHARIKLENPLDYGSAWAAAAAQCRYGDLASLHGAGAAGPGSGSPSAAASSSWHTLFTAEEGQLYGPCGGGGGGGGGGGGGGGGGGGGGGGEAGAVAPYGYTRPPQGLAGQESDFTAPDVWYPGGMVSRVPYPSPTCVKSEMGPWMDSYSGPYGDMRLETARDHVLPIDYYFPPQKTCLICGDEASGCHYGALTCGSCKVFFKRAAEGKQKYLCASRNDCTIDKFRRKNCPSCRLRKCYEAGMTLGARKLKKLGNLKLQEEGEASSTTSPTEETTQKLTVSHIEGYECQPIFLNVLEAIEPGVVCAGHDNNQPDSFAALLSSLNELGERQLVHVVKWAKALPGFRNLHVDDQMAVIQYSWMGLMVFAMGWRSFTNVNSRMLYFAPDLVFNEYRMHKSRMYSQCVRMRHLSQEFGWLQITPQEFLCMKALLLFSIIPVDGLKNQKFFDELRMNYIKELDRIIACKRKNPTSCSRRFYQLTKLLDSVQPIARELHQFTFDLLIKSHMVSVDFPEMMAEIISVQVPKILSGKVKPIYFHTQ
T2 sequence (P10275 whole entry F877L): as the sequence (P10275 whole entry) above, with F877L counted along it

rGABA-gated Cl− channel % inh @10 μM (rGABA-gated Cl− channel) [%] | IC50 ([1]; antagonist mode) [µM] | Emax [1, 5] [%] | EC50 [2, 6] [µM] | Emax [2, 7] [%] | IC50 ([3]; antagonist mode) [µM] | Emax [3, 5] [%] | EC50 [4, 6] [µM] | Emax [4, 7] [%] | Compound | other results
73.4 | 0.0776 | 101 | > 15.1 | 0.3 | 0.0603 | 98.2 | > 15.1 | 0.5 | CN1CC[C@H](Oc2ccc(N3C(=S)N(c4cnc(C#N)c(C(F)(F)F)c4)C(=O)C34CCC4)cc2)[C@@H](F)C1 (racemic) [Cpd 92, 5-[8-[(3SR, 4SR)-4-[(3-fluoro-1-methyl-4-piperidyl)oxy]phenyl]-5-oxo-7-thioxo-6,8-diazaspiro[3.4]octan-6-yl]-3-(trifluoromethyl)pyridine-2-carbonitrile] | 
26.5 | 0.112 | 101 | > 15.1 | 0.1 | 0.0447 | 99.7 | > 15.1 | 0.3 | N#Cc1ncc(N2C(=O)C3(CCC3)N(c3ccc(O[C@H]4CCNC[C@@H]4F)cc3)C2=S)cc1C(F)(F)F (racemic) [Cpd 95, 5-[8-[(3SR, 4SR)-4-[(3-fluoro-4-piperidyl)oxy]phenyl]-5-oxo-7-thioxo-6,8-diazaspiro[3.4]octan-6-yl]-3-(trifluoromethyl)pyridine-2-carbonitrile] | 
26.5 | 0.126 | 100 | > 15.1 | 0.9 | 0.0741 | 99.9 | > 15.1 | 0.4 | N#Cc1ncc(N2C(=O)C3(CCC3)N(c3ccc(O[C@H]4CCNC[C@H]4F)cc3)C2=S)cc1C(F)(F)F (racemic) [Cpd 96, 5-[8-(3RS, 4SR) [4-[(3-fluoro-4-piperidyl)oxy]phenyl]-5-oxo-7-thioxo-6,8-diazaspiro[3.4]octan-6-yl]-3-(trifluoromethyl)pyridine-2-carbonitrile] | 
83.9 | 0.155 | 102 | > 15.1 | 0.3 | 0.123 | 98.3 | > 15.1 | 0.7 | N#Cc1ncc(N2C(=O)C3(CCC3)N(c3ccc(O[C@@H]4CCN[C@H](C(F)(F)F)C4)cc3)C2=S)cc1C(F)(F)F (racemic) [Cpd 101, 5-[5-oxo-7-thioxo-8-[4-[[(2SR,4RS)-2-(trifluoromethyl)-4-piperidyl]oxy]phenyl]-6,8-diazaspiro[3.4]octan-6-yl]-3-(trifluoromethyl)pyridine-2-carbonitrile] | 
52.1 | 0.0794 | 99.7 | > 15.1 | 0.4 | 0.049 | 99.6 | > 15.1 | 0.3 | CN1CC[C@H](Oc2ccc(N3C(=S)N(c4cnc(C#N)c(C(F)(F)F)c4)C(=O)C34CCC4)cc2)[C@H](F)C1 (racemic) [Cpd 102] | 
87.1 | 0.174 | 102 | > 15.1 | 0.1 | 0.219 | 99.7 | > 15.1 | 0.7 | N#Cc1ncc(N2C(=O)C3(CCC3)N(c3ccc(O[C@@H]4CCN[C@@H](C(F)(F)F)C4)cc3)C2=S)cc1C(F)(F)F (racemic) [Cpd 106, 5-[5-oxo-7-thioxo-8-[4-[[(2RS,4RS)-2-(trifluoromethyl)-4-piperidyl]oxy]phenyl]-6,8-diazaspiro[3.4]octan-6-yl]-3-(trifluoromethyl)pyridine-2-carbonitrile] | 
90.4 | 0.0692 |  | > 15.1 |  | 0.0813 |  | > 15.1 |  | CN1CCC(Oc2ccc(N3C(=S)N(c4cnc(C#N)c(C(F)(F)F)c4)C(=O)C34CCC4)cc2)CC1=O (racemic) [Cpd 189, (R,S)-5-[8-[4-[(1-methyl-2-oxo-4-piperidyl)oxy]phenyl]-5-oxo-7-thioxo-6,8-diazaspiro[3.4]octan-6-yl]-3-(trifluoromethyl)pyridine-2-carbonitrile] | Emax [1, 8]: 100%; Emax [2, 9]: 0%; Emax [3, 8]: 99.1%; Emax [4, 9]: 1.7%
94.2 | 0.186 |  | > 15.1 |  | 0.174 |  | > 15.1 |  | N#Cc1ncc(N2C(=O)C3(CCC3)N(c3ccc(OC4CCNC(=O)C4)cc3)C2=S)cc1C(F)(F)F (racemic) [Cpd 195, (R,S)-5-[5-oxo-8-[4-[(2-oxo-4-piperidyl)oxy]phenyl]-7-thioxo-6,8-diazaspiro[3.4]octan-6-yl]-3-(trifluoromethyl)pyridine-2-carbonitrile] | Emax [1, 8]: 102%; Emax [2, 9]: 0%; Emax [3, 8]: 100%; Emax [4, 9]: 0.6%
61.4 | 0.129 |  | > 15.1 |  | 0.0813 |  | > 15.1 |  | N#Cc1ncc(N2C(=O)C3(CCC3)N(c3ccc(O[C@H]4CCN[C@H](CO)C4)cc3)C2=S)cc1C(F)(F)F (racemic) [Cpd 222, 5-[8-(2SR,4SR)[4-[[2-(hydroxymethyl)-4-piperidyl]oxy]phenyl]-5-oxo-7-thioxo-6,8-diazaspiro[3.4]octan-6-yl]-3-(trifluoromethyl)pyridine-2-carbonitrile] | Emax [1, 8]: 99.6%; Emax [2, 9]: 2.3%; Emax [3, 8]: 99.6%; Emax [4, 9]: 0.2%
6.3 |  | 101 | > 15.1 | -0.1 |  | 101 | > 15.1 | 0.1 | CN1CCC(Oc2ccc(N3C(=S)N(c4cnc(C#N)c(C(F)(F)F)c4)C(=O)C34CCC4)cn2)CC1 [Cpd 1, 5-[8-[6-[(1-methyl-4-piperidyl)oxy]-3-pyridyl]-5-oxo-7-thioxo-6,8-diazaspiro[3.4]octan-6-yl]-3-(trifluoromethyl)pyridine-2-carbonitrile] | LNCaP-AR-wt ANT pIC50 ([1]; antagonist mode): 6.94; LNCaP-AR-F876L ANT pIC50 ([3]; antagonist mode): 7.07
1.6 | 0.245 | 101 | > 15.1 | 0.5 | 0.123 | 99.9 | > 15.1 | 0.2 | Cc1cc(N2C(=O)C3(CCC3)N(c3ccc(OC4CCN(C)CC4)nc3)C2=S)cnc1C#N [Cpd 2, 3-methyl-5-[8-[6-[(1-methyl-4-piperidyl)oxy]-3-pyridyl]-5-oxo-7-thioxo-6,8-diazaspiro[3.4]octan-6-yl]pyridine-2-carbonitrile] | 
4.8 |  | 102 | > 15.1 | 0.4 |  | 101 | > 15.1 | 0.4 | COc1cc(N2C(=O)C3(CCC3)N(c3ccc(OC4CCN(C)CC4)cc3)C2=S)cnc1C#N [Cpd 23, 3-methoxy-5-[8-[4-[(1-methyl-4-piperidyl)oxy]phenyl]-5-oxo-7-thioxo-6,8-diazaspiro[3.4]octan-6-yl]pyridine-2-carbonitrile] | LNCaP-AR-wt ANT pIC50 ([1]; antagonist mode): 6.52; LNCaP-AR-F876L ANT pIC50 ([3]; antagonist mode): 6.67
82.7 |  |  |  |  |  |  |  |  | N#Cc1ncc(N2C(=O)C3(CCC3)N(c3ccc(C4=CCCC(CO)O4)cc3)C2=S)cc1C(F)(F)F (stereo not shown) [Cpd 103, 5-(5-(4-(2-(hydroxymethyl)-3,4-dihydro-2H-pyran-6-yl)phenyl)-8-oxo-6-thioxo-5,7-diazaspiro[3.4]octan-7-yl)-3-(trifluoromethyl)picolinonitrile] | 

Compound | rGABA-gated Cl− channel % inh @10 μM (rGABA-gated Cl− channel) [%] | IC50 ([1]; antagonist mode) [µM] | Emax [1, 5] [%] | EC50 [2, 6] [µM] | Emax [2, 7] [%] | IC50 ([3]; antagonist mode) [µM] | Emax [3, 5] [%] | EC50 [4, 6] [µM] | Emax [4, 7] [%] | other results
3-chloro-5-[8-[2-(1-methyl-4-piperidyl)indazol-5-yl]-5-oxo-7-thioxo-6,8-diazaspiro[3.4]octan-6-yl]pyridine-2-carbonitrile [Cpd 181] | 26.0 |  |  |  |  |  |  |  |  | LNCaP-AR-wt ANT pIC50 ([1]; antagonist mode): 6.47; LNCaP-AR-wt ANT MAX % Inh [1, 5]: 96.8%; LNCaP-AR-wt AG pEC50 [2, 6]: <4.82; LNCaP-AR-wt AG MAX % Stim [2, 7]: 1.9%; LNCaP-AR-F876L ANT pIC50 ([3]; antagonist mode): 6.80; LNCaP-AR-F876L ANT MAX % Inh [3, 5]: 101.9%; LNCaP-AR-F876L AG pEC50 [4, 6]: <4.82; LNCaP-AR-F876L AG MAX % Stim [4, 7]: 0.3%
